How the values were obtained:
[1] = system: metabolically active sites of disease; assay: FDG-PET/CT tumor metabolic activity (SUVmax); conditions: RP2D 12 mg/m^2, 10 evaluable subjects; responder = SUVmax decrease greater than 30%; 2-sided 95% CI: 0.3%, 44.5%
Excerpt: Metabolic activity data were obtained for research use only and were not used for clinical management of subjects.

[2] = system: myeloma and NSCLC mouse xenograft models; conditions: at a dose 33% of the MAD; cited from earlier work
[3] = system: mouse xenograft model; conditions: cited from earlier work
[4] = system: subjects with advanced malignancies; conditions: human, in vivo, iv, 28 days
[5] = system: patients; conditions: higher doses (up to 57 mg/m^2), once-every-21-days dosing schedule; cited from earlier work
[6] = system: Rb protein phosphorylation; assay: Immunohistochemistry for phospho-Rb in skin biopsies; assay type: in vivo, human
Method: . The phosphorylation status of the Rb protein in the proliferative layer of skin and in the proliferating cells at the base of hair follicles was determined by IHC utilizing a rabbit anti-phospho-Rb antibody diluted to 0.83 μg/mL or 0.67 μg/mL. Immunohistochemistry staining was scored 0 (no staining relative to background), 1+ (weak staining), 2+ (moderate staining), or 3+ (strong staining); H-score was calculated as a measure of overall immunoreactivity in a given sample, using the following formula: H-score = (% of cells with 3+) × 3 + (% of cells with 2+) × 2 + (% of cells with 1+) × 1. Subjects were to be categorized as responders if no degree of staining was detected with the anti-phospho-Rb antibody.

CCc1cnn2c(NCc3ccc[n+]([O-])c3)cc(N3CCCC[C@H]3CCO)nc12 [dinaciclib]
PET/CT response rate [1]: 10.0%
tumor response in xenograft models [2]: complete tumor regression
minimum effective dose, defined as >50% tumor growth inhibition [3]: 5 mg/kg
recommended phase 2 dose (RP2D) [4]: 12 mg/m^2
DLT [5]: Neutropenia
mean phospho-Rb H score following treatment ([6]; RP2D 12 mg/m^2, 11 subjects, skin biopsy 4 hours after treatment, before treatment 18.55): 17.64
response based on phospho-Rb staining ([6]; responder = complete loss of phospho-Rb staining): no subjects were deemed to have achieved a response

Reference: PMC3853718 (Journal of Translational Medicine, 2013)
